These results are taken from patent publication US20230149418A1, “METHODS AND SYNERGIC COMPOSITIONS FOR TREATING VIRAL INFECTIONS” (HADASIT MEDICAL RESEARCH SERVICES AND DEVELOPMENT LTD., priority 2018, published 2023).

The conditions of data set [1]: male rats, 50 mg/kg for 14 days; cited from earlier work.
In a further data set the test system is HCMV. Briefly: Ex vivo HCMV infection of human decidual (placental) tissue organ cultures, viral mRNA copy number. The format is cell-based, human cytomegalovirus. The note with it: for EC50: Human betaherpesvirus 5; for Dose of drug alone at Fa 0.9: Fa 0.9, drug alone; for DRI (dose reduction index): combination artemisone + maribavir. The method, then: Organ cultures were washed and stored at -80° C. until assayed. RNA was extracted, and the purified RNA samples were subjected to reverse transcription (RT), followed by quantitative real-time PCR. The viral mRNA copy number was normalized by the cellular housekeeping gene β-actin.
We employed our model of HCMV infection in human decidual tissues (representing the maternal aspect of the chimeric human placenta), maintained as multi-cell-type 3D organ cultures as described in Weisblum Y. et al. J Virol 2011 85(24): 13204-13. doi: 10.1128/JVI.05749-11. For infection of the organ cultures, decidual tissues were placed in 48-well plates and inoculated with the virus (5x10^4 plaque forming units (PFU)/well) for 12 h to allow effective viral adsorption. The tissues were further monitored for viral infection and spread for 7 days. For determination of the drug EC50 values of in the tissues, serial drug concentrations: each drug separately or combination of the drugs were added to the infected decidual tissues during viral adsorption at any further medium replacement to keep the drug concentration constant. The results were compared to samples to which the drug was not added. The EC50 was defined as the drug concentration required to reduce the viral mRNA copy number by 50%. The effect of drug combinations was tested in accordance with the Chou-Talalay method. All comparative experiments were performed in parallel on tissues from the same donor.
The dose reduction index (DRI) was then calculated as described in Chou. As described earlier, the DRI is a measure of how many folds the dose of each drug in a synergistic combination may be reduced at a given effect level compared with the doses of each drug alone. For each one of the below tables: Fa - fraction of virus affected; doses are provided in µm.

Another data set deals with human endothelial cells. The following applies: compared with dihydroartemisinin; cited from earlier work.

Where two headings read alike, the source gives them in different places.

For `CC1CCC2[C@@H](C)[C@H](N3CCS(=O)(=O)CC3)OC3O[C@]4(C)CCC1C32OO4` (stereo in doubt) [artemisone], the Tolerability entry in data set [1] was “no effect as compared to controls”. For the same molecule, the EC50 with HCMV (ex vivo, Fa 0.5, drug alone, read-out: Dose of drug alone at Fa 0.5) is 425 nM; in the data set on HCMV (sole drug, ex vivo decidual tissues, read-out: EC50 (concentration required to reduce the viral mRNA copy number by 50%)) it was 500 nM. Moreover, the “Dose of drug alone at Fa 0.05” value with HCMV (ex vivo, Fa 0.05, drug alone) was 0.00699 µm. The “Dose of drug alone at Fa 0.75” value with HCMV (ex vivo, Fa 0.75, drug alone) was found to be 1.965 µm. Also, the “Dose of drug alone at Fa 0.9” value in the data set on HCMV (ex vivo) amounted to 9.1 µm; with HCMV (ex vivo, listed as Art), 9.098 µm. In the data set on HCMV (ex vivo, Fa 0.95, drug alone), the “Dose of drug alone at Fa 0.95” value is recorded as 25.7963 µm. Besides, the “Dose of drug alone at Fa 0.97” value in the data set on HCMV (ex vivo, Fa 0.97, drug alone) is listed as 54.1517 µm. Further, the “DRI (dose reduction index)” value with HCMV (ex vivo, Fa 0.05) is recorded as 0.1239; in the data set with HCMV (ex vivo, Fa 0.5), 1.12; in the data set with HCMV (ex vivo, Fa 0.75) it was 2.546; in the data set on HCMV (ex vivo, Fa 0.9) it was 5.8; in the data set on HCMV (ex vivo, Fa 0.9, listed as Art) it was 5.789; with HCMV (ex vivo, Fa 0.95, listed as Art) it was 10.1210. Moreover, the “DRI (dose reduction index)” value in the data set with HCMV (ex vivo, Fa 0.97) is recorded as 15.0614. In addition, in the data set with human endothelial cells, the Anti-angiogenic activity result is on record as “significantly less anti-angiogenic than dihydroartemisinin”.
